# Data published in US9765075B2, “Substituted bridged urea analogs as sirtuin modulators” (GLAXOSMITHKLINE LLC, priority 2013, dated 2017).
# Where a chain is given by its changes, count along the chain named.
# What was measured:
# Assay in all cases: SIRT1 activation dose-response, OAcADPr assay with Ac-p53(W5) substrate
# Assay type in all cases: biochemical
# full-length hSIRT1 I227A = biological target: T1, full-length hSIRT1 I227A (Homo sapiens, UniProt Q96EB6, I227A); conditions: for EC50: hSIRT1 I227A, activation dose-response, Ac-p53(W5) substrate
# T1 construct: The following point mutants of full-length hSIRT1 were generated; His6 (C); made in house
# T1 sequence (Q96EB6 1-747 I227A): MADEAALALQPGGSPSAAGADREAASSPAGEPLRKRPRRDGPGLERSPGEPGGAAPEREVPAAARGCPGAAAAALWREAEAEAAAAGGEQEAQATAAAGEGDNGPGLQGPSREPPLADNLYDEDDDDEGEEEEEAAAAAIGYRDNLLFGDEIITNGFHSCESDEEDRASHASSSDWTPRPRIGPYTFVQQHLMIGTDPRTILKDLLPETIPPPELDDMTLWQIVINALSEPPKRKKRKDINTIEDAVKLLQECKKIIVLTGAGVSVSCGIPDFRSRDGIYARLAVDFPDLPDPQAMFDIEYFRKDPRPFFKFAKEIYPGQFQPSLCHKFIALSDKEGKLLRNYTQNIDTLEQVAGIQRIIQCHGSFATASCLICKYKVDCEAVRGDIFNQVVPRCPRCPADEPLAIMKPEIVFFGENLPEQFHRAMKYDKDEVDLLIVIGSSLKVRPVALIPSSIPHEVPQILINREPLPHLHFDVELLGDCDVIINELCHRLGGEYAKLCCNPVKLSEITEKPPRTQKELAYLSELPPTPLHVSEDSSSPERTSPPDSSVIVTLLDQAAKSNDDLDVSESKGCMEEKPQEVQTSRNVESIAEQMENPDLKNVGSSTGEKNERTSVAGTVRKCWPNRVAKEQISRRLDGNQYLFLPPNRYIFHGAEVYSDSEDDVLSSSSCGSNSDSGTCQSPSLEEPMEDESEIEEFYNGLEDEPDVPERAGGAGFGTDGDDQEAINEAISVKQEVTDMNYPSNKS
# Method: (§1) SIRT1 activation and inhibition assays were run in reaction buffer with 0.05% BSA at 25° C. and analyzed using the OAcADPr assay. Enzyme and compound were pre-incubated for 20 minutes before addition of substrates. […] The dose-dependence of five compounds was tested and the fold-activation data were described by Eq. 1
# (§2) [formula] where vx/v0 is the ratio of the reaction rate in the presence (vx) versus absence (v0) of activator (X), RVmax is the relative velocity at infinite activator concentration, EC50 is the concentration of activator required to produce one-half RVmax and b is the minimum value of vx/v0.
# full-length hSIRT1 T219A = biological target: T2, full-length hSIRT1 T219A (Homo sapiens, UniProt Q96EB6, T219A); conditions: for EC50: hSIRT1 T219A, activation dose-response, Ac-p53(W5) substrate
# T2 construct: The following point mutants of full-length hSIRT1 were generated; His6 (C); made in house
# T2 sequence (Q96EB6 1-747 T219A): T1 sequence (Q96EB6 1-747 I227A) with T219A, A227I
# Method: as §1, §2
# full-length hSIRT1 E230K = biological target: T3, full-length hSIRT1 E230K (Homo sapiens, UniProt Q96EB6, E230K); conditions: for EC50: hSIRT1 E230K, activation dose-response, Ac-p53(W5) substrate
# T3 construct: His6 (C); made in house
# T3 sequence (Q96EB6 1-747 E230K): T1 sequence (Q96EB6 1-747 I227A) with A227I, E230K
# Method: as §1, §2
SMILES,EC50 fold shift (mutant EC50/wild-type EC50) (full-length hSIRT1 I227A),RVmax fold shift = (wild-type RVmax−1)/(mutant RVmax−1) (full-length hSIRT1 I227A),EC50 (full-length hSIRT1 I227A),EC50 fold shift (mutant EC50/wild-type EC50) (full-length hSIRT1 T219A),RVmax fold shift = (wild-type RVmax−1)/(mutant RVmax−1) (full-length hSIRT1 T219A),EC50 (full-length hSIRT1 T219A),EC50 fold shift (mutant EC50/wild-type EC50) (full-length hSIRT1 E230K),RVmax fold shift = (wild-type RVmax−1)/(mutant RVmax−1) (full-length hSIRT1 E230K),EC50 (full-length hSIRT1 E230K)
Cc1cnc2c(NC(=O)N3c4nc(-c5cccc(C(F)(F)F)c5)ccc4N4CC[C@H]3C4)cccc2n1 [Example 8],6.21,1.06,2.98 µM,8.26,1.64,3.96 µM,1.46,5.36,0.7 µM
O=C(Nc1ccccn1)N1c2nc(-c3cccc(C(F)(F)F)c3)ccc2N2CC[C@H]1C2 [Example 7],3.07,0.85,6.76 µM,4.01,2.73,8.83 µM,1.46,8.67,3.21 µM
